{"source": "patent US20030091533A1", "about": "“Regulation of mononuclear phagocyte stimulation” (priority 2001, published 2003)", "assay_type_in_all_cases": "cell-based, human", "key": {"[1]": {"tested_on": "PMA-stimulated PBM", "assay": "Extracellular O2- release, SOD-inhibitable reduction of ferricytochrome c", "conditions": "for effect on the basal oxidative burst: incubation for 24 hour, PBM without stimulation", "protocol": "Extracellular release of O2-derived radicals was evaluated by the SOD-inhibitable reduction of ferricytochrome c, as previously described (Pick, Methods in Enzymology, 132:407-421 (1986)) as described infra.\nExtracellular release of O2-derived radicals was evaluated by the SOD-inhibitable reduction of ferricytochrome c, as previously described (Pick, Methods in Enzymology, 132:407-421 (1986)). Briefly, after incubation with IL-9 and IL-4 (20 ng/ml) for 1 hour, 4 hour 24 hour and 96 hour, cells were washed three times in Hank's balanced salt solution without phenol red (HBSS) to remove the phenol red-containing medium and incubated at 37° C. with HBSS containing 160 μM ferricytochrome c (plus 300 IU/ml SOD as control for each condition), and concomittantly with 100 ng/ml PMA when indicated. Optical density (OD) at 550 nm was then recorded in a plate spectrometer (Titertek Multiscan Plus MKII, Labsystems, Finland) after 60 min. The released amount of superoxide anion (O2^−) was deduced from the absorbance values at 550 nm (after subtraction of control values with SOD) using the cytochrome c extinction coefficient of 21×10^3 M^−1 cm^−1 (See Massey, Biochim Biophys Acta, 34: 255(1959)). Results were expressed as nmoles O2^− per 10^6 cells per hour (FIG. 1)."}, "[2]": {"tested_on": "LPS-stimulated PBM", "assay": "Intracellular oxidative burst, DCFH oxidation assay, PBM", "conditions": "for oxidative burst in LPS-stimulated PBM with IFN-γ: preincubated 24 hour with cytokine 20 ng/ml in the presence of IFN-γ 200 U/ml, LPS 1 μg/ml 20 hour; for LPS-stimulated oxidative burst in PBM: preincubation 24 hour with cytokine 20 ng/ml, then LPS 1 μg/ml 20 hour, without IFN-γ; for Oxidative burst (nmoles DCF/mg protein): LPS 1 μg/ml 20 h", "protocol": "(§1) Intracellular oxidative capacity was assessed essentially as described by Bass et al., J. Immunol., 130:1910-1917 (1983) (incorporated herein by reference) as described infra.\n(§2) Cells (0.2×10^6) were preincubated for 24 hour with IL-9 or IL-4 (20 ng/ml) in the presence of IFN-γ (200 U/ml) before stimulation for 20 hour with LPS (1 μg/ml). The intracellular oxidative capacity was measured through the DCFH oxidation assay as describe herein. FIG. 3 depicts the effect of IFN-γ on the inhibition mediated by IL-9 and IL-4 on the oxidative burst in LPS-stimulated PBM (A) and AM (B).\n(§3) Table 1. Specific blockade of the IL-9 inhibitory effect on oxidative burst in LPS-15 stimulated PBM and AM by anti-hIL-9R mAb. Cells (0.2×10^6) were preincubated with neutralizing mAb against hIL-9R (AH9R7, 10 μg/ml), or with control mIgG2b (10 μg/ml), 1 hour before incubation with IL-9 (20 ng/ml) for 24 hour without removing mAb, and stimulated by LPS (1 μg/ml) for 20 h. Intracellular oxidative capacity was evaluated by the DCFH oxidation assay. Data are means±SEM obtained from three experiments, triplicate conditions being performed in each experiment. *P<0.001 compared with cells preincubated with IL-9 (with or without control mIgG2b).\nCells (0.2×10^6) were preincubated with neutralizing mAb, either against TGF-β1 (30 μg/ml) or against IL-10Rβ (30 μg/ml) or with control mIgG1 (30 μg/ml), 2 hour before incubation with IL-9 (20 ng/ml) for 24 hour without removing the mAb, and stimulated with LPS (1 μg/ml) for 20 h. Intracellular oxidative capacity was evaluated by the DCFH oxidation assay.\n(§4) Intracellular oxidative capacity was assessed as described by Bass et al., (Bass et al., J. Immunol. 130:1910-1917 (1983)). Briefly, the PBM and AM samples were distributed in 96-well plates with flat bottoms (Falcon) to provide 0.2×10^6cells/well. The cells were preincubated for 24 hour at 37° C., 5% CO2 with cytokines (200 u/ml for IFN-y, 20 ng/ml for IL-9 and 20 ng/ml; for IL-4) in cRPMI before being stimulated for 20 hours with LPS (1 μg/ml) without removing the cytokines. At the end of incubation with cytokines and/or LPS, cells were loaded for 15 min with 15 μM DCFH-DA in cRPMI which, after passive penetration into cells, is hydrolyzed into nonfluorescent polar DCFH and trapped inside the cells. DCFH is then oxidized into highly fluorescent DCF according to the intracellular amount of hydrogen peroxide (H2O2) produced by the respiratory burst. After three washings with phosphate-buffered saline (PBS, pH 7.4), cells were lysed in 0.1% v/v Triton X100 (Sigma) in PBS, and fluorescence was quantified in a computerized microplate spectrofluorimeter (Packard Instruments, Downers Grove, Ill., USA) at 485 nm excitation/530 nm emission wavelengths. DCF concentrations were deduced from a standard curve of known concentrations of fluorescent DCF (ranging from 0.08 to 10 μM in lysis buffer) Results were corrected for total protein concentration determined in cell lysates by the bicinchoninic acid-based method (Pierce, Rockford, Ill., USA), and were expressed as nmoles DCF/mg cell protein."}, "[3]": {"tested_on": "LPS-stimulated AM", "assay": "Intracellular oxidative burst, DCFH oxidation assay, AM", "conditions": "for oxidative burst in LPS-stimulated AM with IFN-γ: preincubated 24 hour with cytokine 20 ng/ml in the presence of IFN-γ 200 U/ml, LPS 1 μg/ml 20 hour; for LPS-stimulated oxidative burst in AM: preincubation 24 hour with cytokine 20 ng/ml, then LPS 1 μg/ml 20 hour, without IFN-γ", "protocol": "as §1, §2, §3, §4"}, "[4]": {"tested_on": "TLR4", "assay": "TLR4 surface expression on PBM by FACS", "conditions": "for TLR4 expression (MFI): PBM preincubated 24 hour, 20 ng/ml IL-9 or IL-4, 200 U/ml IFN-γ, means±SD, medium 73 ± 2; for TLR4 expression on the surface of PBM compared with medium alone: preincubated for 24 hour", "protocol": "Table 2. Cells (0.2×10^6) were preincubated for 24 hour with cytokines (20 ng/ml for IL-9 or IL-4 and 200 U/ml for IFN-γ), before the assessment of LPS receptor expression by immunostaining using anti-human CD14 mAb conjugated to FITC and anti-human TLR4 rabbit Ab followed by mouse anti-rabbit IgG (MAR-FITC). Cell-associated fluorescence was evaluated by FACS and expressed as mean fluorescence intensity (MFI). Autofluorescence of PBM was negligible (MFI: 3±1). Data are means±SD (n=3), and are representative of two experiments. *P<0.05 compared with cells preincubated with medium.\nAdditional stainings for CD14 and Toll-like receptor (TLR)-4 were performed on PBM preincubated for 24 hour with cytokines, using respectively FITC-conjugated anti-CD14 mAb (clone MøP9, mIgG2b, Becton Dickinson) and anti-TLR4 rabbit Ab (Santa Cruz, Calif.) followed by F (ab′)2 fragments of mouse anti-rabbit IgG (MAR)-FITC."}, "[5]": {"conditions": "preincubation 24 hour, LPS 20 hour"}}, "note": "Values joined by “and” are separate entries in the source; they are usually repeats but may differ in a detail not shown here. Equal values may be shown once. Marks after values point to notes of the source that are not given here.", "data": [{"molecule": "IL-4: Th2 cytokine interleukin-4 used as comparator, 20 ng/ml", "values": [{"measurement": "effect on O2^− release by PMA-stimulated PBM", "setting": "[1]; 24 hour of preincubation", "result": "same inhibitory effect"}, {"measurement": "effect on O2^− release by PMA-stimulated PBM", "setting": "[1]; 96 hour of preincubation", "result": "significantly increased"}, {"measurement": "effect on the basal oxidative burst", "setting": "[1]", "result": "little effect"}, {"measurement": "oxidative burst in LPS-stimulated PBM with IFN-γ", "setting": "[2]", "result": "19.6±2.2", "unit": "nmoles DCF/mg protein"}, {"measurement": "LPS-stimulated oxidative burst in PBM", "setting": "[2]", "result": "9.4±0.6", "unit": "nmoles DCF/mg protein"}, {"measurement": "oxidative burst in LPS-stimulated AM with IFN-γ", "setting": "[3]", "result": "13.8±1.3", "unit": "nmoles DCF/mg protein"}, {"measurement": "LPS-stimulated oxidative burst in AM", "setting": "[3]", "result": "6.1±0.4", "unit": "nmoles DCF/mg protein"}, {"measurement": "TLR4 expression (MFI)", "setting": "[4]", "result": "58 ± 1* MFI"}, {"measurement": "TLR4 expression on the surface of PBM compared with medium alone", "setting": "[4]", "result": "down regulated"}]}, {"molecule": "IL-9: Human IL-9 purified from SF9 insect cell cultures infected with recombinant baculovirus", "values": [{"measurement": "effect on O2^− release by PMA-stimulated PBM", "setting": "[1]; 96 hour of preincubation", "result": "not further increased"}, {"measurement": "effect on the basal oxidative burst", "setting": "[1]", "result": "little effect"}, {"measurement": "O2^− release by PMA-stimulated PBM", "setting": "[1]; preincubation 24 hour, 20 ng/ml, PMA 100 ng/ml, medium-preincubated cells 40.1±2.5", "result": "23.2±0.8 nmoles 02-per 10^6 cells. h^−1"}, {"measurement": "effect on O2^− release by PMA-stimulated PBM", "setting": "[1]; shorter preincubation periods (1 hour, 4 hour)", "result": "not significant"}, {"measurement": "Oxidative burst (nmoles DCF/mg protein)", "setting": "[2]; Table 1, PBM, mAb 10 μg/ml 1 hour before IL-9 20 ng/ml 24 hour, means±SEM, medium 10.1 ± 0.4", "result": "10.7 ± 0.5", "unit": "nmoles DCF/mg protein"}, {"measurement": "Oxidative burst (nmoles DCF/mg protein)", "setting": "[2]; Table 3, PBM, mAb 30 μg/ml 2 hour before IL-9 20 ng/ml 24 hour, means±SD, Medium 10.3 ± 0.2", "result": "10.8 ± 0.6", "unit": "nmoles DCF/mg protein"}, {"measurement": "oxidative burst in LPS-stimulated PBM with IFN-γ", "setting": "[2]", "result": "10.5±2.1", "unit": "nmoles DCF/mg protein"}, {"measurement": "LPS-stimulated oxidative burst in PBM", "setting": "[2]", "result": "10.7±0.5", "unit": "nmoles DCF/mg protein"}, {"measurement": "Oxidative burst (nmoles DCF/mg protein)", "setting": "[3]; Table 1, AM, mAb 10 μg/ml 1 hour before IL-9 20 ng/ml 24 hour, LPS 1 μg/ml 20 h, means±SEM, medium 5.8 ± 0.6", "result": "6.5 ± 0.5", "unit": "nmoles DCF/mg protein"}, {"measurement": "oxidative burst in LPS-stimulated AM with IFN-γ", "setting": "[3]", "result": "6.6±1.2", "unit": "nmoles DCF/mg protein"}, {"measurement": "LPS-stimulated oxidative burst in AM", "setting": "[3]", "result": "6.5±0.5 nmoles DCF/mg protein and 6.5±0.6 nmoles DCF/mg protein"}, {"measurement": "TLR4 expression (MFI)", "setting": "[4]", "result": "71 ± 4", "unit": "MFI"}, {"measurement": "TLR4 expression on the surface of PBM compared with medium alone", "setting": "[4]", "result": "not significantly different"}]}, {"molecule": "IFN-γ: Interferon gamma, primes mononuclear phagocytes, 200 U/ml (protein, UniProt P01579 24-161, looked up) Interferon gamma: QDPYVKEAENLKKYFNAGHSDVADNGTLFLGILKNWKEESDRKIMQSQIVSFYFKLFKNFKDDQSIQKSVETIKEDMNVKFFNSNKKKRDDFEKLTNYSVTDLNVQRKAIHELIQVMAELSPAAKTGKRKRSQMLFRG", "values": [{"measurement": "effect on O2^− release by PMA-stimulated PBM", "setting": "[1]; 24 hour of preincubation", "result": "slightly up regulated"}, {"measurement": "effect on LPS-stimulated oxidative burst in PBM", "setting": "[2]; [5]", "result": "slightly increased"}, {"measurement": "effect on LPS-stimulated oxidative burst in AM", "setting": "[3]; [5]", "result": "slightly increased"}, {"measurement": "TLR4 expression (MFI)", "setting": "[4]", "result": "82 ± 2* MFI"}, {"measurement": "TLR4 expression on the surface of PBM compared with medium alone", "setting": "[4]", "result": "increased"}]}]}
